# ChEMBL document CHEMBL5705896 (ACS Chem Biol, 2013)
# Key:
# [1] = Cmax in Swiss albino mouse at 15 to 150 mg/kg administered as single ip dose measured upto 24 hrs; assay type: ADME, organism-based; details: in vivo, dose 15-150 mg/kg
# [2] = molecular target: Mitogen-activated protein kinase 14 (Homo sapiens) (UniProt Q16539); assay: Inhibition of truncated human N-terminal GST-tagged p38 alpha (9 to 352 residues) expressed in Escherichia coli expression system using modified Erktide as substrate at 10 uM by mobility shift assay relative to control
# Mitogen-activated protein kinase 14 (Homo sapiens), sequence (Q16539 whole entry, the tested form may be a part): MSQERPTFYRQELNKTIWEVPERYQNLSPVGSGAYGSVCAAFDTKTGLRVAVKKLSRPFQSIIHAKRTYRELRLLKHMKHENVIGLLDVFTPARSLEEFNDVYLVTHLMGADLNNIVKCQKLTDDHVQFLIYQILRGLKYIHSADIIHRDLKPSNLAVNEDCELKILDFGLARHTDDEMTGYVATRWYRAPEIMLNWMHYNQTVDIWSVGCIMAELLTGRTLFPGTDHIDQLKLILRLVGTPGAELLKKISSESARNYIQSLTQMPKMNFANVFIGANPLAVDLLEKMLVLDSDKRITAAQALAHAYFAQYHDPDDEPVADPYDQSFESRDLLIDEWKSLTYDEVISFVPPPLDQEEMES
# [3] = molecular target: Beta-3 adrenergic receptor (Homo sapiens) (UniProt P13945); assay: Inhibition of Beta3receptor (unknown origin) at 10 uM by radioligand binding assay relative to control
# Beta-3 adrenergic receptor (Homo sapiens), sequence (P13945 whole entry, looked up): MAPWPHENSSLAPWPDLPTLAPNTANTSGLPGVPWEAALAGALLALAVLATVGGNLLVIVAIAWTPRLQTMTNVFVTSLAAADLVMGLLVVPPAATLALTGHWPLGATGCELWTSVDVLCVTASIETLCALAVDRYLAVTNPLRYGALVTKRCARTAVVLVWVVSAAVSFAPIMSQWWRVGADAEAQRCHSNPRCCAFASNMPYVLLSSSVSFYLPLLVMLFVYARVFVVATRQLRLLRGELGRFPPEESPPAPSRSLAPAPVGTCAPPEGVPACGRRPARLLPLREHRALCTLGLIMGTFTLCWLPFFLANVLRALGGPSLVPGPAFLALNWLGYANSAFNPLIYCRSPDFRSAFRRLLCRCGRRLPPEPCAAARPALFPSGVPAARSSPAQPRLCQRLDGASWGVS
# [4] = molecular target: Protein arginine N-methyltransferase 5 (Homo sapiens, UniProt O14744); assay: Inhibition of PRMT5 (unknown origin) using [3H-SAM] as substrate incubated for 1 hr by scintillation proximity assay
# Protein arginine N-methyltransferase 5, sequence (O14744 whole entry): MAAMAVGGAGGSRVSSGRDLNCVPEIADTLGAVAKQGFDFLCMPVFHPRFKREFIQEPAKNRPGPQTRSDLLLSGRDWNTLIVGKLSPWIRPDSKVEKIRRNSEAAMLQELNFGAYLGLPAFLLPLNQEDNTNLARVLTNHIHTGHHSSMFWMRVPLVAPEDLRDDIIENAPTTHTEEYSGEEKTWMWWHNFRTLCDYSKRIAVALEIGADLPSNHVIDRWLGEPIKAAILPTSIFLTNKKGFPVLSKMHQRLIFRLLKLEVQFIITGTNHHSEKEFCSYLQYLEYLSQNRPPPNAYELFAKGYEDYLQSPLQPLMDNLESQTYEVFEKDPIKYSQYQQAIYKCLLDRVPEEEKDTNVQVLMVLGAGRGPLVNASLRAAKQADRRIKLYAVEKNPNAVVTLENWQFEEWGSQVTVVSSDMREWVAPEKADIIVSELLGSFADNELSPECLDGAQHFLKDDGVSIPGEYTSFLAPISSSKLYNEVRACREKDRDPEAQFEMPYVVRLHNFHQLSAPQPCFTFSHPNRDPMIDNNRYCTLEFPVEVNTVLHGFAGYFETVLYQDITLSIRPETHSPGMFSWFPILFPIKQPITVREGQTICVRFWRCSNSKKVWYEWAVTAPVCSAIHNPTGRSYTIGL
# [5] = molecular target: Dual specificity tyrosine-phosphorylation-regulated kinase 1B (Homo sapiens) (UniProt Q9Y463); assay: Inhibition of full length human N-terminal GST tagged DYRK1B (1 to 629 end residues) expressed in baculovirus expression system using DYRKtide-F as substrate at 10 uM by mobility shift assay relative to control
# Dual specificity tyrosine-phosphorylation-regulated kinase 1B (Homo sapiens), sequence (Q9Y463 whole entry, looked up): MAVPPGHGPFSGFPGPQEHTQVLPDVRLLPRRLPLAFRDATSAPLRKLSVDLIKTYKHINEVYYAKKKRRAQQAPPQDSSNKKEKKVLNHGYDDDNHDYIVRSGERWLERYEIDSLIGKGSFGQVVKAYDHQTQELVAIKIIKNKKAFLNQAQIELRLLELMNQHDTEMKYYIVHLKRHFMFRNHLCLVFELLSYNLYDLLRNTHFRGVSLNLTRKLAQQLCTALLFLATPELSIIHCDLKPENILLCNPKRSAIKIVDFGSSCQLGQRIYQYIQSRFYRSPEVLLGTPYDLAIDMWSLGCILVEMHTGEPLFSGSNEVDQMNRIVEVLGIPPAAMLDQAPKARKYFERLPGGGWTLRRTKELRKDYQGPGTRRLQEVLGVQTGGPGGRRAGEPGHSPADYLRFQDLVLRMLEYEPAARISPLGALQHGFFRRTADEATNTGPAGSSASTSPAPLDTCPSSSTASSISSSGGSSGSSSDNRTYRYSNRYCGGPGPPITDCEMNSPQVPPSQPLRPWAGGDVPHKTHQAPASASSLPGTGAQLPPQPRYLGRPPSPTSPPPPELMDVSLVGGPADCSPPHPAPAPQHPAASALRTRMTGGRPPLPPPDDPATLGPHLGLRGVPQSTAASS
# Homo sapiens = species on record: Homo sapiens; assay: Inhibition of BZP (unknown origin) at 10 uM by radioligand binding assay relative to control
# [6] = molecular target: Tyrosine-protein kinase CSK (Homo sapiens) (UniProt P41240); assay: Inhibition of full length human N-terminal GST tagged CSK (1 to 450 end residues) expressed in baculovirus expression system using Srctide as substrate at 10 uM by mobility shift assay relative to control
# Tyrosine-protein kinase CSK (Homo sapiens), sequence (P41240 2-450 limits assumed): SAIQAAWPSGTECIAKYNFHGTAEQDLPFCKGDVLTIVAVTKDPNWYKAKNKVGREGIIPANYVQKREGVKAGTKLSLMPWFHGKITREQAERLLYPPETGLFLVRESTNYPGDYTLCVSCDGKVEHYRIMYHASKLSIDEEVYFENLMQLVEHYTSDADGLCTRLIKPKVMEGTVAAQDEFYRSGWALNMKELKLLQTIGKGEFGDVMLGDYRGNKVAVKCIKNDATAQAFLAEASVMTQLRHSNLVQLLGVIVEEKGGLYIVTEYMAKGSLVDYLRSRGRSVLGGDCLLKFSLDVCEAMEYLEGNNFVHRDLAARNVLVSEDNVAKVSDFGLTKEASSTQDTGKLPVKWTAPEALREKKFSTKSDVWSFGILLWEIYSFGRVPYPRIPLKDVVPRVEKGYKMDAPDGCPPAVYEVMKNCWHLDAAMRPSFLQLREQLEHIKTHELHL
# [7] = molecular target: RAC-alpha serine/threonine-protein kinase (Homo sapiens) (UniProt P31749); assay: Inhibition of human catalytic domain N-terminal GST tagged AKT1 (104 to 480 end residues) expressed in baculovirus expression system using crosstide as substrate at 10 uM by mobility shift assay relative to control
# [8] = molecular target: 5-hydroxytryptamine receptor 1D (Homo sapiens) (UniProt P28221); assay: Inhibition of 5-HT1D receptor (unknown origin) at 10 uM by radioligand binding assay relative to control
# [9] = molecular target: Tyrosine-protein kinase Lck (Homo sapiens) (UniProt P06239); assay: Inhibition of full length human N-terminal GST tagged LCK (1 to 509 end residues) expressed in baculovirus expression system using Srctide as substrate at 10 uM by mobility shift assay relative to control
# [10] = molecular target: Serine/threonine-protein kinase Sgk1 (Homo sapiens) (UniProt O00141); assay: Inhibition of truncated human N-terminal GST-tagged SGK (61 to 431 end residues) expressed in baculovirus expression system using SGKtide as substrate at 10 uM by mobility shift assay relative to control
# [11] = molecular target: Sodium-dependent noradrenaline transporter (Homo sapiens, UniProt P23975)
# Description: Binding affinity to NET (unknown origin) assessed as inhibition constant
# [12] = molecular target: 5-hydroxytryptamine receptor 7 (Homo sapiens) (UniProt P34969); assay: Inhibition of 5-HT7 receptor (unknown origin) at 10 uM by radioligand binding assay relative to control
# [13] = molecular target: Sodium-dependent serotonin transporter (Homo sapiens) (UniProt P31645); assay: Inhibition of SERT (unknown origin) at 10 uM by radioligand binding assay relative to control
# Sodium-dependent serotonin transporter (Homo sapiens), sequence (P31645 whole entry, looked up): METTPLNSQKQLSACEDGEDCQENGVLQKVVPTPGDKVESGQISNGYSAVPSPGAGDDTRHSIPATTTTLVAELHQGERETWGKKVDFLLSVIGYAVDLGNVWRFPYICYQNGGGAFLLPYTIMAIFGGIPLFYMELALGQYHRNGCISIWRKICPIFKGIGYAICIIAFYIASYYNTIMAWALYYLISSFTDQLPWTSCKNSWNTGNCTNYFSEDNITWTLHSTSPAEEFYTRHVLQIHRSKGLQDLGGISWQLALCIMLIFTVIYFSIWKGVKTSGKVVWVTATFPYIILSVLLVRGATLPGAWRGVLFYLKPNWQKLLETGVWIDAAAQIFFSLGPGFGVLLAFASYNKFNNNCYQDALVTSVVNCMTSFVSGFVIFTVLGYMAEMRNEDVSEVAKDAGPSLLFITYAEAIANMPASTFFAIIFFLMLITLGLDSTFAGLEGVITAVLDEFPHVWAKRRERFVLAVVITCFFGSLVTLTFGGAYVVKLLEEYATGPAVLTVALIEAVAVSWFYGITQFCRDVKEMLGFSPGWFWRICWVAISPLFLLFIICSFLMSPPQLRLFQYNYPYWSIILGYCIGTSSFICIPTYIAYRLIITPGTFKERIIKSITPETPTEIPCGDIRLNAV
# [14] = molecular target: 5-hydroxytryptamine receptor 1B (Homo sapiens) (UniProt P28222); assay: Inhibition of 5-HT1B receptor (unknown origin) at 10 uM by radioligand binding assay relative to control
# [15] = molecular target: AMP-activated protein kinase (AMPK) alpha-1/beta-1/gamma-1 (Homo sapiens) (UniProt P54619+Q9Y478+Q13131); assay: Inhibition of full length human N-terminal GST tagged AMPK alpha1(1 to 550 end residues)/beta1 (1 to 270 end residues)/gamma1 (1 to 331 end residues) expressed in baculovirus expression system using SAMS peptide as substrate at 10 uM by mobility shift assay relative to control
# [16] = molecular target: Sodium-dependent dopamine transporter (Homo sapiens) (UniProt Q01959); assay: Inhibition of DAT (unknown origin) at 10 uM by radioligand binding assay relative to control
# Sodium-dependent dopamine transporter (Homo sapiens), sequence (Q01959 whole entry): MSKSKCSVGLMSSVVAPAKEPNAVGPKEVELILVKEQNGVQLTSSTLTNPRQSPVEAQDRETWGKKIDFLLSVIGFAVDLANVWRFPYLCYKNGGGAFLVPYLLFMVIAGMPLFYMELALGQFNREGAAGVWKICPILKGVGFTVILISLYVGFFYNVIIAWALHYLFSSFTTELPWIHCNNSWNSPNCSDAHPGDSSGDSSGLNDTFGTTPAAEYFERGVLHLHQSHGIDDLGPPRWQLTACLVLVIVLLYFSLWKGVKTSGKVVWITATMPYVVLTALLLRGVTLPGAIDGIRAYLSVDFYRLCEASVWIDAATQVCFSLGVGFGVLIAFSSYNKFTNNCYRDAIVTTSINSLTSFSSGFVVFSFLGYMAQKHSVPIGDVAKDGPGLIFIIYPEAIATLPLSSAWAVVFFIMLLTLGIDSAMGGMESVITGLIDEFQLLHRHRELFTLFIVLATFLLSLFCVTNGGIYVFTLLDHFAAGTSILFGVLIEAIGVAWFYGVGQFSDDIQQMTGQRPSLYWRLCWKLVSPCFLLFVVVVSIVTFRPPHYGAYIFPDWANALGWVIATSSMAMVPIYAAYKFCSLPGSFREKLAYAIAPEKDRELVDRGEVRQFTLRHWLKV
# [17] = molecular target: Aurora kinase A (Homo sapiens) (UniProt O14965); assay: Inhibition of full length human N-terminal GST tagged AurA (1 to 403 end residues) expressed in baculovirus expression system using kemptide as substrate at 10 uM by mobility shift assay relative to control
# [18] = molecular target: Alpha-2B adrenergic receptor (Homo sapiens) (UniProt P18089); assay: Inhibition of Alpha2B receptor (unknown origin) at 10 uM by radioligand binding assay relative to control
# Histamine H3 receptor = Histamine H3 receptor (Homo sapiens, UniProt Q9Y5N1)
# Description: Binding affinity to H3 receptor (unknown origin) assessed as inhibition constant
# [19] = molecular target: 5-hydroxytryptamine receptor 2B (Homo sapiens) (UniProt P41595); assay: Inhibition of 5-HT2B receptor (unknown origin) at 10 uM by radioligand binding assay relative to control
# 5-hydroxytryptamine receptor 2B (Homo sapiens), sequence (P41595 whole entry, the tested form may be a part): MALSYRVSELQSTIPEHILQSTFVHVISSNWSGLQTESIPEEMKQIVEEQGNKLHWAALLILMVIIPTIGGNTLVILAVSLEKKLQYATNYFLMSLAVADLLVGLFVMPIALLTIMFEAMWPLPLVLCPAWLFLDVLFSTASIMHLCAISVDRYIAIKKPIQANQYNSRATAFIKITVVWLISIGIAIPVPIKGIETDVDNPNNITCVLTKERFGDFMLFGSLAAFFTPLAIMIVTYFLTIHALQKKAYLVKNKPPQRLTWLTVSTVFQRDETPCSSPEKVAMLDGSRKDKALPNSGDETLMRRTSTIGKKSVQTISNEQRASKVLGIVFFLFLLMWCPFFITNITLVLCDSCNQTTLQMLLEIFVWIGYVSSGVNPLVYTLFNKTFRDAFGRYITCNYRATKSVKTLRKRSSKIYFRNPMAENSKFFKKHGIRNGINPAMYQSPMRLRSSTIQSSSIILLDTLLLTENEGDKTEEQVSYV
# [20] = molecular target: Platelet-derived growth factor receptor alpha (Homo sapiens) (UniProt P16234); assay: Inhibition of human cytoplasmic domain N-terminal GST tagged PDGFR alpha (550 to 1089 residues) expressed in baculovirus expression system using CSKtide as substrate at 10 uM by mobility shift assay relative to control
# [21] = molecular target: Histone-lysine N-methyltransferase 2A (Homo sapiens, UniProt Q03164); assay: Inhibition of MLL1 (unknown origin) using [3H-SAM] as substrate incubated for 1 hr by scintillation proximity assay
# [22] = molecular target: 5-hydroxytryptamine receptor 5A (Homo sapiens) (UniProt P47898); assay: Inhibition of 5-HT5A receptor (unknown origin) at 10 uM by radioligand binding assay relative to control
# [23] = molecular target: Serine/threonine-protein kinase PAK 2 (Homo sapiens) (UniProt Q13177); assay: Inhibition of full length human N-terminal GST tagged PAK2 (1 to 524 end residues) expressed in baculovirus expression system using DAPK1tide as substrate at 10 uM by mobility shift assay relative to control
# Serine/threonine-protein kinase PAK 2 (Homo sapiens), sequence (Q13177 whole entry, the tested form may be a part): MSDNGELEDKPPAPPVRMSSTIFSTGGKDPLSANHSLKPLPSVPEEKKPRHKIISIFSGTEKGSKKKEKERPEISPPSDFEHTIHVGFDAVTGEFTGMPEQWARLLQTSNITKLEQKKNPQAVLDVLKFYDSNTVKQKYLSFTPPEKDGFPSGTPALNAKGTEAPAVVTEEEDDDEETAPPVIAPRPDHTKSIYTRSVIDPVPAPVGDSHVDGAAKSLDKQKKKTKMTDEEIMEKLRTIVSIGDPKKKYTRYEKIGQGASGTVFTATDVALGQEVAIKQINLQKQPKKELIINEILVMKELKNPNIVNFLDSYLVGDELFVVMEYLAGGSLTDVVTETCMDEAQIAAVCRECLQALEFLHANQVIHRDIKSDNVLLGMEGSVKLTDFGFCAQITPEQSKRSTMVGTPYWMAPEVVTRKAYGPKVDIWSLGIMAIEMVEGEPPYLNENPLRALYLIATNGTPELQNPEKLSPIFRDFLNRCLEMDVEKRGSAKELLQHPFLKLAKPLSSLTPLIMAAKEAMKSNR
# [24] = molecular target: Mitogen-activated protein kinase kinase kinase kinase 4 (Homo sapiens) (UniProt O95819); assay: Inhibition of human catalytic domain N-terminal GST tagged HGK (1 to 328 residues) expressed in baculovirus expression system using moesin-derived peptide as substrate at 10 uM by mobility shift assay relative to control
# [25] = molecular target: Histamine H2 receptor (Homo sapiens) (UniProt P25021); assay: Inhibition of H2 receptor (unknown origin) at 10 uM by radioligand binding assay relative to control
# [26] = molecular target: Alpha-1A adrenergic receptor (Homo sapiens) (UniProt P35348); assay: Inhibition of Alpha1A receptor (unknown origin) at 10 uM by radioligand binding assay relative to control
# [27] = molecular target: High affinity nerve growth factor receptor (Homo sapiens) (UniProt P04629); assay: Inhibition of human cytoplasmic domain N-terminal GST tagged TRKA (436 to 790 end residues) expressed in baculovirus expression system using CSKtide as substrate at 10 uM by mobility shift assay relative to control
structure (smiles),measurement,setting,value
CCCc1cc(C)[nH]c(=O)c1CNC(=O)c1cc(-c2ccc(N3CCN(C(C)C)CC3)nc2)cc2c1cnn2C(C)C,Cmax,[1],9.7 µM
same,inhibition,[2],0%
same,inhibition,[3],10%
same,IC50,[4],> 100000 nM
same,inhibition,[5],-4%
same,inhibition,Homo sapiens,-6%
same,inhibition,[6],-4%
same,inhibition,[7],-6%
same,inhibition,[8],50%
same,inhibition,[9],0%
same,inhibition,[10],-3%
same,Ki,[11],1500 nM
same,inhibition,[12],-4%
same,inhibition,[13],6%
same,inhibition,[14],44%
same,inhibition,[15],-3%
same,inhibition,[16],36%
same,inhibition,[17],-4%
same,inhibition,[18],48%
same,Ki,Histamine H3 receptor,300 nM
same,inhibition,[19],-9%
same,inhibition,[20],-5%
same,IC50,[21],> 100000 nM
same,inhibition,[22],10%
same,inhibition,[23],4%
same,inhibition,[24],-2%
same,inhibition,[25],30%
same,inhibition,[26],3%
same,inhibition,[27],7%
